From US20050282811A1, “Diazabicyclic histamine-3 receptor antagonists” (Pfizer Inc, priority 2004, published 2005)

Molecular target: T1, rat histamine H3 receptors (Rattus norvegicus, UniProt Q9QYN8)
T1 construct: Frozen rat frontal brain or frozen human post-mortem frontal brain is homogenized; from tissue; host or cells: rat frontal brain membranes
Assay: Rat H3 Binding (3H-N-methylhistamine displacement, frontal brain membranes)
Details: frozen rat frontal brain membranes; radioligand 1 nM 3H-N-methylhistamine; 1 hour incubation
Description: The in vitro affinity of the compounds in the present invention at the rat or human histamine H3 receptors can be determined according to the following procedure. Frozen rat frontal brain or frozen human post-mortem frontal brain is homogenized in 20 volumes of cold 50 mM Tris HCl containing 2 mM MgCl2 (pH to 7.4 at 4 degrees C.). The homogenate is then centrifuged at 45,000 G for 10 minutes. The supernatant is decanted and the membrane pellet re-suspended by Polytron in cold 50 mM Tris HCl containing 2 mM MgCl2 (pH to 7.4 at 4 degrees C.) and centrifuged again. The final pellet is re-suspended in 50 mM Tris HCl containing 2 mM MgCl2 (pH to 7.4 at 25 degrees C.) at a concentration of 12 mg/mL. Dilutions of compounds are made in 10% DMSO/50 mM Tris buffer (pH 7.4) (at 10×final concentration, so that the final DMSO concentration is 1%). Incubations are initiated by the addition of membranes (200 microliters) to 96 well V-bottom polypropylene plates containing 25 microliters of drug dilutions and 25 microliters of radioligand (1 nM final concentration ^3H-N-methylhistamine). After a 1 hour incubation, assay samples are rapidly filtered through Whatman GF/B filters and rinsed with ice-cold 50 mM Tris buffer (pH 7.4) using a Skatron cell harvester. Radioactivity is quantified using a BetaPlate scintillation counter.

T1 sequence (Q9QYN8 whole entry): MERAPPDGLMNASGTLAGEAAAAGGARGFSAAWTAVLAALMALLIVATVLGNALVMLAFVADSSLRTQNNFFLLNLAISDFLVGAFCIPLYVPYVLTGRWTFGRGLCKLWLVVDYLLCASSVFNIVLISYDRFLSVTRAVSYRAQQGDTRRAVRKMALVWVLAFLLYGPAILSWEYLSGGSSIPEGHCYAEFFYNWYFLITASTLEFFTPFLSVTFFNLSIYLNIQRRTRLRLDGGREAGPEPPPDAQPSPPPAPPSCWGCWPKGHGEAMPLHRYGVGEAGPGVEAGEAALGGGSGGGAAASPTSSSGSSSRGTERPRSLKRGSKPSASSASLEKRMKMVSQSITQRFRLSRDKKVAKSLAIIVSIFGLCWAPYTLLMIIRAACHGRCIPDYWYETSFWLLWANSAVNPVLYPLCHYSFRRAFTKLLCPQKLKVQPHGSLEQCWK

Structure (SMILES)	Ki [µM]
Clc1ccc(CN2CCN3C[C@@H](COCCCN4CCCCC4)CC[C@H]3C2)cc1 (stereo in doubt) [Example 18, cis-2-(4-Chlorobenzyl)-7-(3-piperidin-1-ylpropoxymethyl)-octahydro-pyrido[1,2-a]pyrazine]	> 0.069
Clc1cccc(CN2CCN3C[C@H](COCCCN4CCCCC4)CC[C@H]3C2)c1 (stereo in doubt) [Example 11, trans-2-(3-Chlorobenzyl)-7-(3-piperidin-1-ylpropoxymethyl)-octahydro-pyrido[1,2-a]pyrazine]	0.033
CS(=O)(=O)c1ccc(CN2CCN3C[C@@H](COCCCN4CCCCC4)CC[C@H]3C2)cc1 (stereo in doubt) [Example 21, cis-2-(4-Methanesulfonylbenzyl)-7-(3-piperidin-1-ylpropoxymethyl)-octahydro-pyrido[1,2-a]pyrazine]	0.026
CN1CCN2C[C@H](COCCCN3CCCCC3)CC[C@H]2C1 (stereo in doubt) [Example 16, trans-2-Methyl-7-(3-piperidin-1-ylpropoxymethyl)-octahydro-pyrido[1,2-a]pyrazine]	0.114
c1ccc(CN2CCN3C[C@H](COCCCN4CCCCC4)CC[C@H]3C2)nc1 (stereo in doubt) [Example 15, trans-7-(3-Piperidin-1-yl-propoxymethyl)-2-pyridin-2-ylmethyl-octahydro-pyrido[1,2-a]pyrazine]	0.09
c1ccc(CCCN2CCN3C[C@H](COCCCN4CCCCC4)CC[C@H]3C2)cc1 (stereo in doubt) [Example 4, trans-2-(3-Phenylpropyl)-7-(3-piperidin-1-ylpropoxymethyl)-octahydro-pyrido[1,2-a]pyrazine]	0.037
c1cc(CN2CCN3C[C@H](COCCCN4CCCCC4)CC[C@H]3C2)ccn1 (stereo in doubt) [Example 13, trans-7-(3-Piperidin-1-yl-propoxymethyl)-2-pyridin-4-ylmethyl-octahydro-pyrido[1,2-a]pyrazine]	0.033
CS(=O)(=O)c1ccc(CN2CCN3C[C@H](COCCCN4CCCCC4)CC[C@H]3C2)cc1 [Example 1, trans-(7R, 9aS)-2-(4-Methanesulfonylbenzyl)-7-(3-piperidin-1-ylpropoxymethyl)-octa-hydro-pyrido[1,2-a]pyrazine]	0.042

More lines, in order of falling Ki, values ahead:

Ki [µM]	Structure (SMILES)
0.155	C1CCN(CCCOC[C@@H]2CC[C@H]3CNCCN3C2)CC1 (stereo in doubt) [Intermediate 3, trans-7-(3-Piperidin-1-ylpropoxymethyl)-octahydro-pyrido[1,2-a]pyrazine]
0.125	c1ccc(CN2CCN3C[C@H](COCCCN4CCCCC4)CC[C@H]3C2)cc1 (stereo in doubt) [Example 2, trans-2-Benzyl-7-(3-piperidin-1-ylpropoxymethyl)-octahydro-pyrido[1,2-a]pyrazine]
0.07	CC(=O)Nc1ccc(CN2CCN3C[C@H](COCCCN4CCCCC4)CC[C@H]3C2)cc1 (stereo in doubt) [Example 12, trans-N-{4-[7-(3-Piperidin-1-ylpropoxymethyl)-octahydro-pyrido[1,2-a]pyrazin-2-ylmethyl]-phenyl}-acetamide]
0.06	CC(=O)c1ccc(CN2CCN3C[C@@H](COCCCN4CCCCC4)CC[C@H]3C2)cc1 (stereo in doubt) [Example 17, cis-1-{4-[7-(3-Piperidin-1-ylpropoxymethyl)-octahydro-pyrido[1,2-a]pyrazin-2-ylmethyl]-phenyl}-ethanone]
0.055	COc1ccc(CN2CCN3C[C@H](COCCCN4CCCCC4)CC[C@H]3C2)cc1 (relative stereo) [Example 6]
0.054	c1ccc(CCN2CCN3C[C@H](COCCCN4CCCCC4)CC[C@H]3C2)cc1 (stereo in doubt) [Example 3, trans-2-Phenethyl-7-(3-piperidin-1-ylpropoxymethyl)-octahydro-pyrido[1,2-a]pyrazine]
0.035	CC(=O)c1ccc(CN2CCN3C[C@H](COCCCN4CCCCC4)CC[C@H]3C2)cc1 (stereo in doubt) [Example 5, trans-1-{4-[7-(3-Piperidin-1-ylpropoxymethyl)-octahydro-pyrido[1,2-a]pyrazin-2-ylmethyl]-phenyl}-ethanone]
0.028	COc1cccc(CN2CCN3C[C@H](COCCCN4CCCCC4)CC[C@H]3C2)c1 (stereo in doubt) [Example 7, trans-2-(3-Methoxybenzyl)-7-(3-piperidin-1-ylpropoxymethyl)-octahydro-pyrido[1,2-a]pyrazine]
0.026	Fc1ccc(CN2CCN3C[C@H](COCCCN4CCCCC4)CC[C@H]3C2)cc1 (stereo in doubt) [Example 8, trans-2-(4-Fluorobenzyl)-7-(3-piperidin-1-ylpropoxymethyl)-octahydro-pyrido[1,2-a]pyrazine]
0.014	Clc1ccc(CN2CCN3C[C@H](COCCCN4CCCCC4)CC[C@H]3C2)cc1 (stereo in doubt) [Example 10, trans-2-(4-Chlorobenzyl)-7-(3-piperidin-1-ylpropoxymethyl)-octahydro-pyrido[1,2-a]pyrazine]
0.009	Fc1cccc(CN2CCN3C[C@H](COCCCN4CCCCC4)CC[C@H]3C2)c1 (stereo in doubt) [Example 9, trans-2-(3-Fluorobenzyl)-7-(3-piperidin-1-ylpropoxymethyl)-octahydro-pyrido[1,2-a]pyrazine]
